# Experiments:
# common ragweed [1] = test: Test A preemergence; assay type: in vivo, Ambrosia elation
# Summary of the method: (§1)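 Greenhouse test in loam soil/sand blend; compounds formulated in non-phytotoxic solvent with surfactant, applied as preemergence directed soil spray or postemergence to plants 2–10 cm tall at one- to two-leaf stage. Injury rated visually versus untreated controls after approximately 10 days on a 0 (no effect) to 100 (complete control) scale.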
# common ragweed [2] = test: Test A postemergence; assay type: in vivo, Ambrosia elation
# Summary of the method: as §1
# galium = test: Test A postemergence; assay type: in vivo, Galium aparine
# Summary of the method: as §1
# Surinam grass = test: Test C postemergence; assay type: in vivo, Brachiaria decumbens; conditions: for Surinam Grass plant response rating: 62 g ai/ha, scale 0 to 100
# Text: (§2) Seeds of plant species selected from blackgrass (Alopecurus myosuroides), ryegrass, Italian (Italian ryegrass, Lolium multiflorum), wheat (winter wheat, Triticum aestivum), galium (catchweed bedstraw, Galium aparine), corn (Zea mays), crabgrass, large (large crabgrass, Digitaria sanguinalis), foxtail, giant (giant foxtail, Setaria faberii), johnsongrass (Sorghum halepense), lambsquarters (Chenopodium album), morningglory (Ipomoea coccinea), nutsedge, yellow (yellow nutsedge, Cyperus esculentus), pigweed (redroot pigweed, Amaranthus retroflexus), ragweed (common ragweed, Ambrosia elation), soybean (Glycine max), barnyardgrass (Echinochloa crus-galli), oilseed rape (Brassica napus), waterhemp (common waterhemp, Amaranthus rudis), oat, wild (wild oat, Avena fatua), kochia (Kochia scoparia), Surinam grass (Brachiaria decumbens), foxtail, green (green foxtail, Setaria viridis), goosegrass (Eleusine indica), bromegrass, downy (downy bromegrass, Bromus tectorum), nightshade (eastern black nightshade, Solanum ptycanthum), cocklebur (common cocklebur, Xanthium strumarium), cupgrass, woolly (woolly cupgrass, Eriochloa villosa), bermudagrass (Cynodon dactylon), sunflower, (common oilseed sunflower, Helianthus annuus), Russian thistle (Salsola kali), and velvetleaf (Abutilon theophrasti) were planted into a blend of loam soil and sand and treated preemergence with test chemicals formulated in a non-phytotoxic solvent mixture which included a surfactant.
# (§3) At the same time, plants selected from these crop and weed species and also chickweed (common chickweed, Stellaria media), canarygrass (littleseed canarygrass, Phalaris minor), and deadnettle (henbit deadnettle, Lamium amplexicaule), were planted in pots containing Redi-Earth® planting medium (Scotts Company, 14111 Scottslawn Road, Marysville, Ohio 43041) comprising spaghnum peat moss, vermiculite, wetting agent and starter nutrients and treated with postemergence applications of test chemicals formulated in the same manner. Plants ranged in height from 2 to 18 cm (1- to 4-leaf stage) for postemergence treatments. Treated plants and controls were maintained in a greenhouse for 13 to 15 days, after which time all species were compared to controls and visually evaluated. Plant response ratings, summarized in Table C, are based on a scale of 0 to 100 where 0 is no effect and 100 is complete control. A dash (-) response means no test result.
# foxtail, green = test: Test C postemergence; assay type: in vivo, Setaria viridis; conditions: for Foxtail, Green plant response rating: scale 0 to 100
# Text: as §2, §3
# windgrass = test: Test C postemergence; assay type: in vivo, Apera spica-venti; conditions: 250 g ai/ha, scale 0 to 100 (0 no effect, 100 complete control)
# common waterhemp = test: Test F preemergence; assay type: in vivo, Amaranthus rudis
# Text: (§4) Seeds of plant species selected from corn (Zea mays), soybean (Glycine max), velvetleaf (Abutilon theophrasti), lambsquarters (Chenopodium album), wild poinsettia (Euphorbia heterophylla), pigweed, palmer (palmer pigweed, Amaranthus palmeri), common waterhemp (Amaranthus rudis), surinam grass (Brachiaria decumbens), large crabgrass (Digitaria sanguinalis), crabgrass, Brazil (Brazilian crabgrass, Digitaria horizontalis), fall panicum (Panicum dichotomiflorum), giant foxtail (Setaria faberii), green foxtail (Setaria viridis), goosegrass (Eleusine indica), johnsongrass (Sorghum halepense), common ragweed (Ambrosia elation), barnyardgrass (Echinochloa crus-galli), southern sandbur (Cenchrus echinatus), arrowleaf sida (Sida rhombifolia), Italian ryegrass (Lolium multiflorum), dayflower, VA (Virginia (VA) dayflower, Commelina virginica), field bindweed (Convolvulus arvensis), cocklebur (common cocklebur, Xanthium strumarium), morningglory (Ipomoea coccinea), nightshade (eastern black nightshade, Solanum ptycanthum), kochia (Kochia scoparia), yellow nutsedge (Cyperus esculentus), and hairy beggarticks (Bidens pilosa), were planted into a silt loam soil and treated preemergence with test chemicals formulated in a non-phytotoxic solvent mixture which included a surfactant.
# (§5) At the same time, plants from these crop and weed species and also horseweed (Canada horseweed, Conyza canadensis), smartweed (ladysthumb smartweed, Polygonum persicaria), waterhemp_RES1, (ALS & Triazine resistant common waterhemp, Amaranthus rudis), and waterhemp_RES2, (ALS & HPPD resistant common waterhemp, Amaranthus rudis) were treated with postemergence applications of test chemicals formulated in the same manner. Plants ranged in height from 2 to 18 cm for postemergence treatments (1- to 4-leaf stage). Treated plants and controls were maintained in a greenhouse for 14 to 21 days, after which time all species were compared to controls and visually evaluated. Plant response ratings, summarized in Table F, are based on a scale of 0 to 100 where 0 is no effect and 100 is complete control. A dash (-) response means no test result.
# dayflower, VA = test: Test F preemergence; assay type: in vivo, Commelina virginica
# Text: as §4, §5
# velvetleaf = test: Test F preemergence; assay type: in vivo, Abutilon theophrasti
# Text: as §4, §5
# [3] = 125 g ai/ha, visual injury, 0 to 100 scale, approx. 10 days
# [4] = 500 g ai/ha, visual injury after approx. 10 days, 0 to 100 scale (0 no effect, 100 complete control)
# [5] = Postemergence, 500 g ai/ha, 0 to 100 scale (0 no effect, 100 complete control)
# [6] = postemergence, 125 g ai/ha, about 10 days, visual rating on 0 to 100 scale (0 no effect, 100 complete control)
# [7] = 125 g ai/ha, scale 0 to 100, 0 no effect, 100 complete control
# [8] = 250 g ai/ha, scale 0 to 100 (0 no effect, 100 complete control)
# [9] = postemergence, 250 g ai/ha, scale 0 to 100 (0 no effect, 100 complete control)
# [10] = postemergence, 125 g ai/ha, scale 0 to 100, 0 no effect, 100 complete control
# [11] = Preemergence, 31 g ai/ha, scale 0 to 100
# [12] = Preemergence, 62 g ai/ha, scale 0 to 100
# [13] = Preemergence, 125 g ai/ha, scale 0 to 100
# [14] = preemergence, 8 g ai/ha, scale 0 to 100, 100 is complete control
# [15] = preemergence, 16 g ai/ha, scale 0 to 100, 100 is complete control
# [16] = Preemergence, 250 g ai/ha, scale 0 to 100
smiles,measurement,setting,value
CCOc1cc(C(=O)NCC(F)(F)F)nn1Cc1ccnc(OC(F)F)c1 [Compound 128],Common Ragweed plant response rating,common ragweed [1]; [3],70
same,Common Ragweed plant response rating,common ragweed [1]; [4],90
same,Common Ragweed plant response rating,common ragweed [2]; [5],70
same,Common Ragweed plant response rating,common ragweed [2]; [6],30
same,Galium plant response rating,galium; [5],100
same,Galium plant response rating,galium; [6],90
CCCc1cc(C(=O)NC2CC2)nn1Cc1ccnc(OC(F)F)c1 [Compound 205],Common Ragweed plant response rating (0 to 100 scale),"common ragweed [1]; 125 g ai/ha, visual injury approx. 10 days after treatment",70
same,Common Ragweed plant response rating,common ragweed [1]; [4],100
same,Common Ragweed plant response rating,common ragweed [2]; [5],90
same,Common Ragweed plant response rating,common ragweed [2]; [6],80
same,Galium plant response rating,"galium; Postemergence, 125 g ai/ha, 0 to 100 scale, 0 no effect, 100 complete control",90
same,Galium plant response rating,galium; [5],90
Cc1cc(C(=O)NCC(F)(F)F)nn1Cc1ccnc(C(F)(F)F)c1 [Compound 74],Surinam Grass plant response rating,Surinam grass,10
same,"Plant response rating, Surinam Grass",Surinam grass; [7],15
same,"Plant response rating, Surinam Grass",Surinam grass; [8],25
same,"Foxtail, Green plant response rating","foxtail, green; Postemergence, 31 g ai/ha",0
same,"Foxtail, Green plant response rating","foxtail, green; postemergence, 62 g ai/ha",0
same,"Plant response rating, Foxtail, Green","foxtail, green; [9]",5
same,"Plant response rating, Foxtail, Green","foxtail, green; [10]",0
same,"Plant response rating, Windgrass",windgrass,5
CCc1cc(C(=O)NOC(C)C)nn1Cc1ccnc(OC(F)F)c1 [Compound 126],Common Ragweed plant response rating,common ragweed [1]; [3],90
same,Common Ragweed plant response rating,common ragweed [1]; [4],100
same,Common Ragweed plant response rating,common ragweed [2]; [5],80
same,Common Ragweed plant response rating,common ragweed [2]; [6],80
same,Galium plant response rating,galium; [5],90
same,Galium plant response rating,galium; [6],90
CCCNC(=O)c1cc(CC)n(Cc2cccc(OC(F)(F)F)c2)n1 [Compound 27],Surinam Grass plant response rating,Surinam grass,5
same,"Plant response rating, Surinam Grass",Surinam grass; [7],10
same,"Plant response rating, Surinam Grass",Surinam grass; [8],10
same,"Foxtail, Green plant response rating","foxtail, green; Postemergence, 31 g ai/ha",25
same,"Plant response rating, Foxtail, Green","foxtail, green; [9]",50
same,"Plant response rating, Foxtail, Green","foxtail, green; postemergence, 62 g ai/ha, scale 0 to 100, 0 no effect, 100 complete control",30
same,"Plant response rating, Foxtail, Green","foxtail, green; [10]",30
same,"Plant response rating, Windgrass",windgrass,45
CCONC(=O)c1cc(CC)n(Cc2cccc(OC(F)(F)F)c2)n1 [Compound 72],Surinam Grass plant response rating,Surinam grass,10
same,"Plant response rating, Surinam Grass",Surinam grass; [7],10
same,"Plant response rating, Surinam Grass",Surinam grass; [8],15
same,"Foxtail, Green plant response rating","foxtail, green; Postemergence, 31 g ai/ha",20
same,"Foxtail, Green plant response rating","foxtail, green; postemergence, 62 g ai/ha",40
same,"Plant response rating, Foxtail, Green","foxtail, green; [9]",40
same,"Plant response rating, Foxtail, Green","foxtail, green; [10]",40
same,"Plant response rating, Windgrass",windgrass,30
CCCNC(=O)c1cc(OCC)n(Cc2ccnc(OC(F)F)c2)n1 [Compound 136],Common Ragweed plant response rating,common ragweed [1]; [3],70
same,Common Ragweed plant response rating,common ragweed [1]; [4],80
same,Common Ragweed plant response rating,common ragweed [2]; [5],100
same,Common Ragweed plant response rating,common ragweed [2]; [6],30
same,Galium plant response rating,galium; [5],100
same,Galium plant response rating,galium; [6],90
CCCc1cc(C(=O)NCC(F)(F)F)nn1Cc1ccnc(OC(F)F)c1 [Compound 127],Common Ragweed plant response rating,common ragweed [1]; [3],30
same,Common Ragweed plant response rating,common ragweed [1]; [4],90
same,Common Ragweed plant response rating,common ragweed [2]; [5],80
same,Common Ragweed plant response rating,common ragweed [2]; [6],30
same,Galium plant response rating,galium; [5],90
same,Galium plant response rating,galium; [6],90
CCc1cc(-c2ccc(C(F)(F)F)cc2)nn1Cc1ccnc(C(F)(F)F)c1 [Compound 110],"Plant response rating, Common Waterhemp",common waterhemp; [11],85
same,"Plant response rating, Common Waterhemp",common waterhemp; [12],100
same,"Plant response rating, Common Waterhemp",common waterhemp; [13],100
same,"Plant response rating, Common Waterhemp",common waterhemp; [14],65
same,"Plant response rating, Common Waterhemp",common waterhemp; [15],65
same,"Plant response rating, Dayflower, VA","dayflower, VA; [11]",5
same,"Plant response rating, Dayflower, VA","dayflower, VA; [12]",10
same,"Plant response rating, Dayflower, VA","dayflower, VA; [13]",65
same,"Plant response rating, Dayflower, VA","dayflower, VA; [14]",0
same,"Plant response rating, Dayflower, VA","dayflower, VA; [15]",0
same,"Plant response rating, Velvetleaf",velvetleaf; [11],30
same,"Plant response rating, Velvetleaf",velvetleaf; [12],40
same,"Plant response rating, Velvetleaf",velvetleaf; [13],75
same,"Plant response rating, Velvetleaf",velvetleaf; [14],20
same,"Plant response rating, Velvetleaf",velvetleaf; [15],35
CCc1cc(C(=O)NCC(F)(F)F)nn1Cc1ccnc(Br)c1 [Compound 224],"Plant response rating, Common Waterhemp",common waterhemp; [12],100
same,"Plant response rating, Common Waterhemp",common waterhemp; [13],100
same,"Plant response rating, Common Waterhemp",common waterhemp; [16],100
same,"Plant response rating, Dayflower, VA","dayflower, VA; [12]",0
same,"Plant response rating, Dayflower, VA","dayflower, VA; [13]",40
same,"Plant response rating, Dayflower, VA","dayflower, VA; [16]",85
same,"Plant response rating, Velvetleaf",velvetleaf; [12],50
same,"Plant response rating, Velvetleaf",velvetleaf; [13],80
same,"Plant response rating, Velvetleaf",velvetleaf; [16],95
CCCc1cc(C(=O)NC(C)C)nn1Cc1cc(C(F)(F)F)nn1C [Compound 201],"Plant response rating, Common Waterhemp","common waterhemp; Preemergence, 16 g ai/ha, scale 0 to 100",0
same,"Plant response rating, Common Waterhemp",common waterhemp; [12],75
same,"Plant response rating, Common Waterhemp",common waterhemp; [13],80
same,"Plant response rating, Common Waterhemp",common waterhemp; [16],100
same,"Plant response rating, Common Waterhemp",common waterhemp; [15],5
same,"Plant response rating, Dayflower, VA","dayflower, VA; [12]",0
same,"Plant response rating, Dayflower, VA","dayflower, VA; [13]",35
same,"Plant response rating, Dayflower, VA","dayflower, VA; [16]",65
same,"Plant response rating, Dayflower, VA","dayflower, VA; [15]",0
same,"Plant response rating, Velvetleaf",velvetleaf; [12],0
same,"Plant response rating, Velvetleaf",velvetleaf; [13],30
same,"Plant response rating, Velvetleaf",velvetleaf; [16],100
same,"Plant response rating, Velvetleaf",velvetleaf; [15],0
same,"Plant response rating, Velvetleaf","velvetleaf; preemergence, scale 0 to 100, 100 is complete control",0
